molecular target: T1, IKKβ (Homo sapiens, UniProt O14920); assay: IKKβ inhibition assay by fluorescence polarization (IMAP kit); format: biochemical; details: test compound at 1 μM; inhibition rate exceeding 100% is indicated as 100%
T1 construct: purchased Upstate Biotechnology Inc. 14-485
T1 sequence (O14920 1-756): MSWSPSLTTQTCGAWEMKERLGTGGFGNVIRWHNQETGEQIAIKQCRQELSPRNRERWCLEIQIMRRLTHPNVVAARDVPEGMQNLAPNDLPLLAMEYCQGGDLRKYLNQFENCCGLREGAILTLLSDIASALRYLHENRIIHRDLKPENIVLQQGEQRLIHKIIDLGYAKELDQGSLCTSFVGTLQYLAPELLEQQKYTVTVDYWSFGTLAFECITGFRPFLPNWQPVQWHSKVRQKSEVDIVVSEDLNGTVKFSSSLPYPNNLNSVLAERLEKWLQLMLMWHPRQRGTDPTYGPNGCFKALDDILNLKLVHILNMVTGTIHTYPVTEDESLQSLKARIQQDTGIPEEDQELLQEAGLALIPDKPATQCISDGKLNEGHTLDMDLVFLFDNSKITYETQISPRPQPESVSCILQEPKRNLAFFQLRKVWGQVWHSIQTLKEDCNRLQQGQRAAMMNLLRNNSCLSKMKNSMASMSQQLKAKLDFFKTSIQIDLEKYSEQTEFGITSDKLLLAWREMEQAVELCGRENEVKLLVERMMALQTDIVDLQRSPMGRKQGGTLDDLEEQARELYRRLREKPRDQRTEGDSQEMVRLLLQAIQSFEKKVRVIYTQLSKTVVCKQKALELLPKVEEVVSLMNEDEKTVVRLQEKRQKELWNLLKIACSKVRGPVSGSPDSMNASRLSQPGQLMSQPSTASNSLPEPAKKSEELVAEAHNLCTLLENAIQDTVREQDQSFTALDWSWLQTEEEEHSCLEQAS
Description: Details of the above will be described in detail in [Pharmacological Test] in Examples described below in this specification. IKKβ inhibition assay by fluorescence polarization was performed using IMAP™ IKKβ assay kit (manufactured by Molecular Devices Corporation, catalogue No. R8115) or IMAP™ FP Screening Express kit (manufactured by Molecular Devices Corporation, catalogue No. R8127).
In order to evaluate IKKβ inhibitory activity of the present compounds, an IKKβ inhibition assay by a fluorescence polarization method was conducted. The assay was conducted using IMAP™ IKKβ assay kit (manufactured by Molecular Devices Corporation, catalogue No. R8115) or IMAP™ FP Screening Express kit (manufactured by Molecular Devices Corporation, catalogue No. R8127) in accordance with the protocol attached to each kit. The specific methods are described below.
1) Complete Reaction Buffer: a complete reaction buffer was so prepared to obtain a final composition of 10 mM Tris-HCL (pH 7.2), 10 mM magnesium chloride, 0.1% bovine serum albumin, and 1 mM dithiothreitol.
2) Substrate Working Solution: 400 nM substrate working solution was prepared by dissolving and diluting a fluorescein-labeled IKKβ substrate peptide (amino acid sequence: GRHDSGLDSMK) with the complete reaction buffer.
3) Enzyme Working Solution: 0.2 units/mL enzyme working solution was prepared by diluting IKKβ solution (manufactured by Upstate Biotechnology Inc., catalogue No. 14-485) with the complete reaction buffer.
4) ATP Working Solution: 8 μM ATP working solution was prepared by dissolving ATP into ultrapure water followed by diluting it with the complete reaction buffer.
5) IMAP binding solution: After diluting an IMAP binding buffer with ultrapure water, an IMAP binding solution was prepared by diluting an IMAP binding reagent with the diluted IMAP binding buffer.
A test compound was dissolved in dimethyisulfoxide followed by diluting it with the complete reaction buffer to prepare 4 μM test compound solution.
1) To a 384-well plate, the test compound solution, the enzyme working solution, the substrate working solution, and the ATP working solution were added in an amount of 5 μL per well.
2) Incubation was performed at room temperature for 60 minutes under light shielding.
3) The IMAP binding solution was added in an amount of 60 μL per well.
4) Incubation was performed at room temperature for 30 minutes under light shielding.
5) Fluorescence polarization value of each well was measured by using Analyst™ HT (multimode plate reader manufactured by Molecular Devices Corporation) and Criterion Host Software v2.00 (manufactured by Molecular Devices Corporation).
6) Operations were performed in the same manner as in 1) to 5) except for changing the test compound to 0.4% dimethylsulfoxide. The obtained result was designated as a control.
7) Operations were performed in the same manner as in 1) to 5) except for changing the test compound and the enzyme working solution to 0.4% dimethylsulfoxide and the complete reaction buffer, respectively. The obtained result was designated as a background.
An IKKβ inhibition rate (%) was calculated by the following equation.
IKKβ inhibition rate (%)=100×{1-(fluorescence polarization value of test compound−fluorescence polarization value of background)/(fluorescence polarization value of control−fluorescence polarization value of background)}

inhibition at 1 µM [%] | Structure (SMILES)
95 | COc1ccc2c(C(N)=O)c(NC(N)=O)[nH]c2c1 [Compound No. 1-1, 2-Aminocarbonylamino-6-methoxyindole-3-carboxamide]
78 | COc1cccc2c(C(N)=O)c(NC(N)=O)[nH]c12 [Compound No. 1-3, 2-Aminocarbonylamino-7-methoxyindole-3-carboxamide]
90 | NC(=O)Nc1[nH]c2cc(O)ccc2c1C(N)=O [Compound No. 2-1, 2-Aminocarbonylamino-6-hydroxyindole-3-carboxamide]
91 | NC(=O)Nc1[nH]c2cc(OCC3CC3)ccc2c1C(N)=O [Compound No. 3-2, 2-Aminocarbonylamino-6-cyclopropylmethyloxyindole-3-carboxamide]
91 | C=Cc1cc(F)c2c(C(N)=O)c(NC(N)=O)[nH]c2c1OC [Compound No. 8-2, 2-Aminocarbonylamino-4-fluoro-7-methoxy-6-vinylindole-3-carboxamide]
87 | COc1c(-c2ccoc2)cc(F)c2c(C(N)=O)c(NC(N)=O)[nH]c12 [Compound No. 8-3, 2-Aminocarbonylamino-4-fluoro-6-(furan-3-yl)-7-methoxyindole-3-carboxamide]
92 | NC(=O)Nc1[nH]c2cc(Oc3ccc(Cl)cc3)ccc2c1C(N)=O [Compound No. 9-1, 2-Aminocarbonylamino-6-(4-chlorophenyloxy)indole-3-carboxamide]

More lines, now with the values behind:

Structure (SMILES) | inhibition at 1 µM [%]
COc1ccc(F)c2c(C(N)=O)c(NC(N)=O)[nH]c12 [Compound No. 1-4, 2-Aminocarbonylamino-4-fluoro-7-methoxyindole-3-carboxamide] | 60
NC(=O)Nc1[nH]c2cc(Oc3ccc([N+](=O)[O-])cc3)ccc2c1C(N)=O [Compound No. 4-1, 2-Aminocarbonylamino-6-(4-nitrophenyloxy)indole-3-carboxamide] | 100
NC(=O)Nc1[nH]c2cc(Oc3ccnc(Cl)c3)ccc2c1C(N)=O [Compound No. 4-3, 2-Aminocarbonylamino-6-(2-chloropyridine-4-yloxy)indole-3-carboxamide] | 89
Cc1cc([N+](=O)[O-])ccc1Oc1ccc2c(C(N)=O)c(NC(N)=O)[nH]c2c1 [Compound No. 4-6, 2-Aminocarbonylamino-6-(2-methyl-4-nitrophenyloxy)indole-3-carboxamide] | 97
CC(=O)Nc1ccc(Oc2ccc3c(C(N)=O)c(NC(N)=O)[nH]c3c2)cc1 [Compound No. 6-1, 6-(4-Acetylaminophenyloxy)-2-(aminocarbonylamino)indole-3-carboxamide] | 98

— patent US8445529B2, “Indole derivative having, carbamoyl group, ureido group and substituted oxy group” (Santen Pharmaceutical Co., Ltd., priority 2008, dated 2013)
